# Test results as given in US20220169632A1, “METHODS AND MATERIALS FOR INCREASING OR MAINTAINING NICOTINAMIDE MONONUCLEOTIDE ADENYLYL TRANSFERASE-2 (NMNAT2) POLYPEPTIDE LEVELS” (University of Pittsburgh - Of the Commonwealth System of …, priority 2019, published 2022).
# Tested on: NMNAT2
# Experiment: NMNAT2-Hibit nano-luciferase activity in stably transfected U87MG cells, various concentrations, 24 hours
# Assay type: cell-based
# Conditions: U87MG cells stably transfected with NMNAT2-Hibit luc plasmid
# Description: Selected compounds were tested in vitro. U87MG cells were stably transfected with NMNAT2-Hibit luc plasmid. Cells were treated with a test compound at various concentrations for 24 hours. Cells were then collected and assayed for nano-luciferase activity.
row,SMILES,E: compound efficacy for NMNAT2 activation (concentration giving >25% increase in NMNAT2 luciferase activity)
1,Cc1cccc(Cn2cc(CCCC(=O)NCc3cccnc3)c3ccccc32)c1 [BC20173],++ (“++” >25% increase in NMNAT2 luciferase activity at >1 μM ≤25 μM.)
2,Cc1cccc(Cn2cc(CCCC(=O)NCc3ccncc3)c3ccccc32)c1 [BC20174],++ (“++” >25% increase in NMNAT2 luciferase activity at >1 μM ≤25 μM.)
3,Cc1cccc(Cn2cc(CCCC(=O)Nc3cccc(C)c3C)c3ccccc32)c1 [BC20175],++ (“++” >25% increase in NMNAT2 luciferase activity at >1 μM ≤25 μM.)
4,Cc1ccc(CNC(=O)Cn2cc(C(=O)c3ccc(Cl)cc3)c3ccccc32)o1 [BC20176],++ (“++” >25% increase in NMNAT2 luciferase activity at >1 μM ≤25 μM.)
5,O=C(Cn1cc(C(=O)c2ccc(Cl)cc2)c2ccccc21)NCc1ccccc1F [BC20177],+++ (“+++” >25% increase in NMNAT2 luciferase activity at ≤1 μM.)
6,Cc1ccccc1CNC(=O)Cn1cc(C(=O)c2ccc(Cl)cc2)c2ccccc21 [BC20178],++ (“++” >25% increase in NMNAT2 luciferase activity at >1 μM ≤25 μM.)
7,Cc1cccc(CNC(=O)Cn2cc(C(=O)c3ccc(Cl)cc3)c3ccccc32)c1 [BC20179],++ (“++” >25% increase in NMNAT2 luciferase activity at >1 μM ≤25 μM.)
8,COc1ccccc1CNC(=O)Cn1cc(C(=O)c2ccc(Cl)cc2)c2ccccc21 [BC20180],++ (“++” >25% increase in NMNAT2 luciferase activity at >1 μM ≤25 μM.)
9,COc1cccc(CNC(=O)Cn2cc(C(=O)c3ccc(Cl)cc3)c3ccccc32)c1 [BC20181],++ (“++” >25% increase in NMNAT2 luciferase activity at >1 μM ≤25 μM.)
10,O=C(c1ccc(Cl)cc1)c1cn(CC(=O)N2CCN(C(=O)c3ccco3)CC2)c2ccccc12 [BC20182],+ (“+” >25% increase in NMNAT2 luciferase activity at >25 μM.)
11,Cc1ccc(C)c(Cn2c3c(c4ccccc42)CC(C(=O)NCc2ccc(C)o2)CC3)c1 (stereo not drawn) [BC20183],+ (“+” >25% increase in NMNAT2 luciferase activity at >25 μM.)
12,Cc1ccc(C)c(Cn2c3c(c4ccccc42)CC(C(=O)NCc2cccc(F)c2)CC3)c1 (stereo not drawn) [BC20184],+ (“+” >25% increase in NMNAT2 luciferase activity at >25 μM.)
13,Cc1ccc(C)c(Cn2c3c(c4ccccc42)CC(C(=O)NCc2ccccc2C)CC3)c1 (stereo not drawn) [BC20185],++ (“++” >25% increase in NMNAT2 luciferase activity at >1 μM ≤25 μM.)
14,Cc1cccc(CNC(=O)C2CCc3c(c4ccccc4n3Cc3cc(C)ccc3C)C2)c1 (stereo not drawn) [BC20186],+ (“+” >25% increase in NMNAT2 luciferase activity at >25 μM.)
15,COc1ccccc1CNC(=O)C1CCc2c(c3ccccc3n2Cc2cc(C)ccc2C)C1 (stereo not drawn) [BC20187],+ (“+” >25% increase in NMNAT2 luciferase activity at >25 μM.)
16,COc1cccc(CNC(=O)C2CCc3c(c4ccccc4n3Cc3cc(C)ccc3C)C2)c1 (stereo not drawn) [BC20188],++ (“++” >25% increase in NMNAT2 luciferase activity at >1 μM ≤25 μM.)
17,Cc1ccc(C)c(Cn2c3c(c4ccccc42)CC(C(=O)NCc2cccnc2)CC3)c1 (stereo not drawn) [BC20189],++ (“++” >25% increase in NMNAT2 luciferase activity at >1 μM ≤25 μM.)
18,Cc1ccc(C)c(Cn2c3c(c4ccccc42)CC(C(=O)NCc2ccncc2)CC3)c1 (stereo not drawn) [BC20190],+ (“+” >25% increase in NMNAT2 luciferase activity at >25 μM.)
19,Cc1ccc(Cn2cc(C3=CC(=O)NCC3)c3ccccc32)cc1 [BC20191],++ (“++” >25% increase in NMNAT2 luciferase activity at >1 μM ≤25 μM.)
20,Cc1ccc(Cn2cc(C3CCNC(=O)C3)c3ccccc32)cc1 (stereo not drawn) [BC20192],++ (“++” >25% increase in NMNAT2 luciferase activity at >1 μM ≤25 μM.)
21,Cc1ccc(CNC(=O)c2ccc3c(c2)c(C)c(C)n3Cc2ccccc2F)o1 [BC20193],+ (“+” >25% increase in NMNAT2 luciferase activity at >25 μM.)
22,Cc1c(C)n(Cc2ccccc2F)c2ccc(C(=O)NCC3CCCO3)cc12 (stereo not drawn) [BC20194],+ (“+” >25% increase in NMNAT2 luciferase activity at >25 μM.)
23,Cc1cccc(CNC(=O)c2ccc3c(c2)c(C)c(C)n3Cc2ccccc2F)c1 [BC20195],+ (“+” >25% increase in NMNAT2 luciferase activity at >25 μM.)

row,SMILES,E: compound efficacy for NMNAT2 activation (concentration giving >25% increase in NMNAT2 luciferase activity)
1,COc1cccc(CNC(=O)c2ccc3c(c2)c(C)c(C)n3Cc2ccccc2F)c1 [BC20196],+ (“+” >25% increase in NMNAT2 luciferase activity at >25 μM.)
2,Cc1c(C)n(Cc2ccccc2F)c2ccc(C(=O)NCc3ccncc3)cc12 [BC20197],++ (“++” >25% increase in NMNAT2 luciferase activity at >1 μM ≤25 μM.)
3,CCCCN(CC)Cc1ccc(CNC(=O)c2ccc3c(c2)c(C)c(C)n3Cc2ccccc2F)o1 [BC20198],+++ (“+++” >25% increase in NMNAT2 luciferase activity at ≤1 μM.)
4,Cc1ccccc1Cn1c(C)c(C)c2cc(C(=O)NCc3ccco3)ccc21 [BC20199],++ (“++” >25% increase in NMNAT2 luciferase activity at >1 μM ≤25 μM.)
5,Cc1ccc(CNC(=O)c2ccc3c(c2)c(C)c(C)n3Cc2ccccc2C)o1 [BC20200],++ (“++” >25% increase in NMNAT2 luciferase activity at >1 μM ≤25 μM.)
6,Cc1ccccc1Cn1c(C)c(C)c2cc(C(=O)NCC3CCCO3)ccc21 (stereo not drawn) [BC20201],+ (“+” >25% increase in NMNAT2 luciferase activity at >25 μM.)
7,Cc1ccccc1Cn1c(C)c(C)c2cc(C(=O)NCc3cccc(F)c3)ccc21 [BC20202],++ (“++” >25% increase in NMNAT2 luciferase activity at >1 μM ≤25 μM.)
8,Cc1ccccc1CNC(=O)c1ccc2c(c1)c(C)c(C)n2Cc1ccccc1C [BC20203],++ (“++” >25% increase in NMNAT2 luciferase activity at >1 μM ≤25 μM.)
9,Cc1cccc(CNC(=O)c2ccc3c(c2)c(C)c(C)n3Cc2ccccc2C)c1 [BC20204],++ (“++” >25% increase in NMNAT2 luciferase activity at >1 μM ≤25 μM.)
10,COc1cccc(CNC(=O)c2ccc3c(c2)c(C)c(C)n3Cc2ccccc2C)c1 [BC20205],+ (“+” >25% increase in NMNAT2 luciferase activity at >25 μM.)
11,Cc1ccccc1Cn1c(C)c(C)c2cc(C(=O)N3CCN(C(=O)c4ccco4)CC3)ccc21 [BC20206],+ (“+” >25% increase in NMNAT2 luciferase activity at >25 μM.)
12,Cc1ccccc1Cn1c(C)c(C)c2cc(C(=O)NC(C)Cc3ccco3)ccc21 (stereo not drawn) [BC20207],+ (“+” >25% increase in NMNAT2 luciferase activity at >25 μM.)
13,Cc1ccccc1Cn1c(C)c(C)c2cc(C(=O)NCc3cccnc3)ccc21 [BC20208],++ (“++” >25% increase in NMNAT2 luciferase activity at >1 μM ≤25 μM.)
14,Cc1ccccc1Cn1c(C)c(C)c2cc(C(=O)NCc3ccncc3)ccc21 [BC20209],++ (“++” >25% increase in NMNAT2 luciferase activity at >1 μM ≤25 μM.)
15,O=C(CCCc1cn(Cc2ccccc2F)c2ccccc12)NCc1ccccc1F [BC20210],+ (“+” >25% increase in NMNAT2 luciferase activity at >25 μM.)
16,CCCCN(CC)Cc1ccc(CNC(=O)CCCc2cn(Cc3ccccc3F)c3ccccc23)o1 [BC20211],+++ (“+++” >25% increase in NMNAT2 luciferase activity at ≤1 μM.)
17,CCCCN(CC)Cc1ccc(CNC(=O)CCCc2cn(Cc3cccc(F)c3)c3ccccc23)o1 [BC20212],+++ (“+++” >25% increase in NMNAT2 luciferase activity at ≤1 μM.)
18,COc1ccccc1CNC(=O)CCCc1cn(Cc2cccc(C)c2)c2ccccc12 [BC20213],++ (“++” >25% increase in NMNAT2 luciferase activity at >1 μM ≤25 μM.)
19,CC(Cc1ccco1)NC(=O)Cn1cc(C(=O)c2ccc(Cl)cc2)c2ccccc21 (stereo not drawn) [BC20214],+ (“+” >25% increase in NMNAT2 luciferase activity at >25 μM.)
20,O=C(Cn1cc(C(=O)c2ccc(Cl)cc2)c2ccccc21)NCCc1ccccc1 [BC20215],++ (“++” >25% increase in NMNAT2 luciferase activity at >1 μM ≤25 μM.)
21,O=C(Cn1cc(C(=O)c2ccc(Cl)cc2)c2ccccc21)NCc1ccncc1 [BC20216],++ (“++” >25% increase in NMNAT2 luciferase activity at >1 μM ≤25 μM.)
22,Cc1ccc(C)c(Cn2c3c(c4ccccc42)CC(C(=O)NCc2ccccc2F)CC3)c1 (stereo not drawn) [BC20217],+ (“+” >25% increase in NMNAT2 luciferase activity at >25 μM.)
